Entries after “also recorded” stand apart in the source; their conditions may differ. Structures can show the parent of a compound that is named as a salt.
Experiments:
[1] = tested on: isoproterenol-mediated cAMP production; experiment: cAMP assay in HASMCs; format: cell-based, human; details: pertussis toxin 18 h, 1 μg/ml; 306±23 fold without PTX
Description: Isolation and culture of HASMC. Human lungs were received from the National Disease Research Interchange (Philadelphia, PA, USA) and from the International Institute for the Advancement of Medicine (Edison, NJ, USA) and HASM cells were derived from the tracheas. […] Culture of HASM cells was conducted as described previously (Panettieri et al., 1989a). Briefly, cells were cultured in Ham's F-12 medium supplemented with 100 U mL^−1 penicillin, 0.1 mg mL^−1, streptomycin, […] amphotericin B and 10% FBS. Medium was replaced every 72 hours. HASM cells were only used during subculture passages 1-4 due to the strong expression of native contractile proteins (Panettieri et al., 1989b). In pertussis toxin studies, cells were treated with 1 μg/ml of pertussis toxin for 18 hours. All pharmacologic inhibitors were used with DMSO as the vehicle at a final concentration of 0.1% and were used to treat HASMC 30 minutes prior to agonist stimulation.
cAMP Assay. HASMCs were seeded in a 24-well plate until about 80% confluent and serum-deprived overnight. Cells were stimulated and lysed using cAMP-Screen System ELISA from Applied Biosystems (Bedford, MA, USA). Experiment was conducted according to manufacturer's protocol.

[2] = tested on: AKT phosphorylation at S473 (pAKT); experiment: Immunoblot of AKT phosphorylation in HASMCs; format: cell-based, human
Description: Isolation and culture of HASMC. Human lungs were received from the National Disease Research Interchange (Philadelphia, PA, USA) and from the International Institute for the Advancement of Medicine (Edison, NJ, USA) and HASM cells were derived from the tracheas. […] Culture of HASM cells was conducted as described previously (Panettieri et al., 1989a). Briefly, cells were cultured in Ham's F-12 medium supplemented with 100 U mL^−1 penicillin, 0.1 mg mL^−1, streptomycin, 2.5 mg mL^−1 amphotericin B and 10% FBS. Medium was replaced every 72 hours. HASM cells were only used during subculture passages 1-4 due to the strong expression of native contractile proteins (Panettieri et al., 1989b). In pertussis toxin studies, cells were treated with 1 μg/ml of pertussis toxin for 18 hours. […]
Immunoblot analysis. […] Phosphorylation of MYPT1, MLC and AKT were assessed, and band densities were normalized to GAPDH, total MYPT1, total MLC, or total AKT band density.
Statistical analysis. […] For experiments comparing agonist responses in primary cells, conditions were all normalized to the basal condition and subsequently analyzed statistically. GraphPad Prism software (La Jolla, CA, USA) was used to determine statistical significance evaluated by Student's unpaired t-test for two groups or ANOVA with Bonferroni post-test for 3 or more groups. […]

[3] = tested on: human precision-cut lung slices (hPCLS); experiment: hPCLS airway dilation assay; format: cell-based

**Q.** Which results are given for pertussis toxin?
**A.** isoproterenol-mediated cAMP elevation in the presence of carbachol (fold over basal) [1]: 461±37 fold; effect on carbachol-induced AKT phosphorylation compared to vehicle ([2]; pertussis toxin 18 h, 1 μg/ml before carbachol 10 μM 10 min, vehicle 0.01% DMSO): little effect

**Q.** What does the source list for rhosin?
**A.** bronchodilation of carbachol-preconstricted hPCLS ([3]; increasing doses of rhosin after carbachol, compared with formoterol): comparable to formoterol; also recorded: reverses carbachol-induced bronchoconstriction in a dose-dependent manner; carbachol-induced phosphorylation of AKT (fold over basal) ([2]; primary HASMCs, rhosin 10 μM 30 minutes, carbachol 10 μM 10 min, vehicle 4.4±0.8 fold): 0.6±0.1 fold

**Q.** How did the EC50 ([3]; Homo sapiens, read-out: log EC50, reversal of carbachol-induced bronchoconstriction (converted)) turn out when `COc1ccc(CC(C)NCC(O)c2ccc(O)c(NC=O)c2)cc1` (centres unmarked) [Formoterol, formoterol fumarate dihydrate] was run?
**A.** The EC50 was 501 nM.

Source: patent US20250057836A1, “Compositions And Methods Targeting G12 Signaling For Bronchodilator Therapy” (Rutgers, The State University of New Jersey, priority 2017, published 2025)
